We go through 4 molecules from publication PMC4893628, “Chalcone-based Selective Inhibitors of a C4 Plant Key Enzyme as Novel Potential Herbicides” (Scientific Reports, 2016).

Read-outs that look alike come from different tables or passages of the source.

Assay [1] relates to Amaranthus retroflexus. The assay can be described thus: In planta growth experiment, A. retroflexus. Format: in vivo. As to conditions: for Influence on plants: shoots sprayed, 3 mM; for dry weight: six days after treatment, both experiments. The text has this: Seeds of Amaranthus retroflexus L. (Herbiseed, Twyford, UK) and Brassica napus L. cv. Mozart (Norddeutsche Pflanzenzucht Hans-Georg Lembke KG, Holtsee, Germany) were sown in vermiculite for germination. When cotyledons were fully expanded, seedlings were transplanted into plastic pots with a volume of 0.230 L filled with a substrate containing 50% bottom ash (0–4 mm), 30% peat and 20% pumice gravel (0–4 mm). Plants were watered every other day with 0.03% Hakaphos® Grün solution (Compo Expert GmbH, Münster, Germany) by sub-irrigation. Plants were grown in a climate chamber at 22 °C/20 °C day/night temperature and a day/night length of 16 h/8 h. Relative humidity was adjusted to 70% and light intensity was 320 μmol m^−2 s^−1 PAR (Photosynthetically Active Radiation) at plant level.
When seedlings reached the two-leaf growth stage, plant shoots were sprayed from the top with treatment solutions using spray bottles with a spraying angle of 35° (10 ml, neoLab Migge Laborbedarf-Vertriebs GmbH, Heidelberg, Germany). Treatment solutions were applied from a height of 8.5 cm above the pots. Each pot was sprayed once with a solution volume of 0.135 ml. Treatment solutions contained 2.4% (v/v) DMSO (dimethylsulfoxide, Duchefa Biochemie, Haarlem, the Netherlands), 0.1% (v/v) Tween® and the respective compound at a concentration of 3 mM. The control treatment contained 2.4% (v/v) DMSO, and 0.1% (v/v) Tween20. Further details are given in the Supplementary Information. […]
Experimental design and assessments of in planta experiments
We tested eleven compounds in a first experiment. In a follow-up experiment we tested selected […]
chalcone. Each treatment was repeated 12 times, except for oilseed rape in the second experiment (n=10). Pots were arranged in the growth chamber according to a fully randomized design. Initial growth of the second leaf of A. retroflexus plants was monitored by aquiring images of each plant from above from day zero to day two after treatment. Images were taken […]
from a fixed distance at 90° view angle using the camera Canon EOS 70D equipped with a Canon EF 14 mm/2.8 L II USM lens. Leaf area of single leaves was measured using the ImageJ software31, by drawing the leaf contours using a drawing tablet (Cintiq 22HD, Wacom Europe GmbH, Krefeld, Germany). Conversion of pixel to cm was achieved by using a target of known size inside the image. Six days after the treatment, half of the plants were harvested. Leaf area was assessed using a leaf area meter (LI3100C Area Meter, LI-Cor, Lincoln, Nebraska, USA) and samples were oven-dried at 65°C for seven days to obtain dry weight . Thirteen days after the treatment, this procedure was repeated with the second half of plants.
Chlorophyll fluorescence measurements […]
6 mm leaf discs were cut out of the second leaf and immediately placed into 96-well-plates filled with 300 µL 0.125 % Hoagland’s solution with 1 mM MES-KOH (MES-monohydrate, Merck, Darmstadt, Germany) buffered to a pH of 6.5. The treatment solution contained 1.6 % (v/v) DMSO, 0.1 % (v/v) Tween® 20 and 2',3',4',3,4-Pentahydroxychalcone at a concentration of 2 mM. The control treatment contained 1.6 % (v/v) DMSO, 0.1 % (v/v) Tween® 20. Each leaf disc was treated with 1.5 µL solution placed on top of the leaf discs. Plates were sealed with Parafilm and placed into a climate cabinet with 12h/12h day/night-length and a temperature of 22°C at a light intensity of 130 µmol m-2 s-1. 96 hours after treatment, chlorophyll fluorescence measurements were performed on leaf discs using an Imaging PAM M-Series fluorescence camera (Heinz Walz GmbH, Effeltrich, Germany). Leaf discs were dark adapted for 30 minutes, minimum and maximum chlorophyll fluorescence were obtained and leaf discs were illuminated for 30 minutes

Assay [2] deals with Pseudomonas putida KT2440. Kind of assay: Bacterial growth in microscale cultivation, P. putida. The format is cell-based. As to conditions: for activity at 0.3 µM / activity at 3 µM / activity at 30 µM / activity at 0.1 µM / activity at 1 µM / activity at 10 µM: Pseudomonas putida. The procedure:
The following bacteria were cultivated in the presence of trans-chalcone derived inhibitors: Corynebacterium glutamicum ATCC13032[43], Escherichia coli K-12 MG1655[44], Pseudomonas putida KT2440[45], and Bacillus subtilis 168[46]. The growth of these bacteria was monitored in flower-well plates shaken at 1200 rpm as backscatter at 620 nm (gain 20) using a BioLector® microscale cultivation system (m2p labs, Baesweiler, Germany). For further experimental details please refer to the Supplementary Information.
medium or the appropriate minimal medium and shaken at 140 rpm overnight. For inoculation of
the main culture, cells equivalent to an optical density at 600 nm of 0.5 (C. glutamicum, E. coli,
and P. putida) or 0.25 (B. subtilis) in 800 µL medium were washed and resuspended in fresh
media. Inhibitor substances were dissolved in DMSO and added to the media to a final
Since the least polar trans-chalcone and 2’-hydroxychalcone precipitated in the growth media at
the highest concentrations, the maximal concentration of these compounds was reduced to 400
µM and 100 µM, respectively. The final backscatter at 620 nm, the growth rate (h-1), and the
duration of the lag phase of all cultures were determined in a BioLector microscale cultivation
system in comparison to negative controls supplemented with the solvent DMSO. A longer lag

[3] abbreviates: KT2440, complex medium, 0.3 µM, relative to control, read-out: Final Backscatter.
Setting [4] is: KT2440, complex medium, 0.3 µM, relative to control, read-out: Growth rate.
Setting [5] is: KT2440, complex medium, 3 µM, relative to control, read-out: Final Backscatter.
Where [6] appears, read: KT2440, complex medium, 3 µM, relative to control, read-out: Growth rate.
Where [7] appears, read: KT2440, complex medium, 30 µM, relative to control, read-out: Final Backscatter.
Setting [8] is: KT2440, complex medium, 30 µM, relative to control, read-out: Growth rate.
Setting [9] is: KT2440, minimal medium, 0.3 µM, relative to control, read-out: Final Backscatter.
Where [10] appears, read: KT2440, minimal medium, 0.3 µM, relative to control, read-out: Growth rate.
[11] abbreviates: KT2440, minimal medium, 3 µM, relative to control, read-out: Final Backscatter.
Where [12] appears, read: KT2440, minimal medium, 3 µM, relative to control, read-out: Growth rate.
[13] abbreviates: KT2440, minimal medium, 30 µM, relative to control, read-out: Final Backscatter.
The mark [14] stands for this setting: KT2440, minimal medium, 30 µM, relative to control, read-out: Growth rate.
Setting [15] is: complex medium, 0.3 µM, relative to control.
[16] abbreviates: complex medium, 3 µM, relative to control.
The mark [17] stands for this setting: complex medium, 30 µM, relative to control.
Where [18] appears, read: minimal medium, 0.3 µM, relative to control.
Where [19] appears, read: minimal medium, 3 µM, relative to control.
Where [20] appears, read: minimal medium, 30 µM, relative to control.

Take `O=C(/C=C/c1cc(O)c(O)c(O)c1)c1ccc(O)cc1O` [Compound 9, 2′,4′,3,4,5-Pentahydroxychalcone]: the Influence on plants result in assay [1] is recorded as “No”. The activity at 0.3 µM in assay [2] (setting [3]) was 94.7%; in assay [2] (setting [4]) it was 99.4%; in assay [2] (setting [9]) it was 93.1%; in assay [2] (setting [10]), 109%. The activity at 3 µM in assay [2] (setting [5]) stood at 96.9%; in assay [2] (setting [6]) it was 101%; in assay [2] (setting [11]), 96.5%; in assay [2] (setting [12]), 108%. The activity at 30 µM worked out at 93% in assay [2] (setting [7]), 102% in assay [2] (setting [8]), 98.3% in assay [2] (setting [13]) and 108% in assay [2] (setting [14]). The “Lag Phase” value in assay [2] (setting [15]) is recorded as 101,2%; in assay [2] (setting [16]), 102,4%; in assay [2] (setting [17]) it was 99,4%; in assay [2] (setting [18]), 99,0%; in assay [2] (setting [19]), 99,3%; in assay [2] (setting [20]) it was 99,7%.
Take `O=C(/C=C/c1ccccc1)c1ccc(O)c(O)c1O` [Compound 10, 2′,3′,4′-Trihydroxychalcone]: in assay [1], the Influence on plants entry was “Yes”. In addition, in assay [1], the dry weight entry was “significantly reduced”. For the same molecule, the activity at 0.3 µM was found to be 103% in assay [2] (KT2440, read-out: Final Backscatter, complex medium, 0.3 µM, relative to control); 101% in assay [2] (KT2440, read-out: Final Backscatter, minimal medium, 0.3 µM, relative to control); 114% in assay [2] (KT2440, read-out: Growth rate, complex medium, 0.3 µM, relative to control); 94.8% in assay [2] (KT2440, read-out: Growth rate, minimal medium, 0.3 µM, relative to control). The activity at 3 µM came out at 102% in assay [2] (KT2440, read-out: Final Backscatter, complex medium, 3 µM, relative to control); 101% in assay [2] (KT2440, read-out: Final Backscatter, minimal medium, 3 µM, relative to control); 103% in assay [2] (KT2440, read-out: Growth rate, complex medium, 3 µM, relative to control); 96% in assay [2] (KT2440, read-out: Growth rate, minimal medium, 3 µM, relative to control). For the same molecule, the activity at 30 µM in assay [2] (KT2440, read-out: Final Backscatter, complex medium, 30 µM, relative to control) is 105%; in assay [2] (KT2440, read-out: Final Backscatter, minimal medium, 30 µM, relative to control), 103%; in assay [2] (KT2440, read-out: Growth rate, complex medium, 30 µM, relative to control), 105%; in assay [2] (KT2440, read-out: Growth rate, minimal medium, 30 µM, relative to control) it was 91.3%. The “Lag Phase” value in assay [2] (setting [15]) is 103,9%; in assay [2] (setting [16]), 100,9%; in assay [2] (setting [17]), 107,3%; in assay [2] (setting [18]) it was 100,0%; in assay [2] (setting [19]) it was 101,5%; in assay [2] (setting [20]) it was 99,2%.
Turning to `O=C(/C=C/c1ccc(O)c(O)c1)c1c(O)cc(O)cc1O` [Compound 11, 2′,4′,6′,3,4-Pentahydroxy-chalcone], in assay [1], the Influence on plants result is “No”. The activity at 0.3 µM is 92.6% in assay [2] (setting [3]), 108% in assay [2] (setting [4]), 93.9% in assay [2] (setting [9]) and 96.8% in assay [2] (setting [10]). Besides, the activity at 3 µM in assay [2] (setting [5]) was 96.8%; in assay [2] (setting [6]), 106%; in assay [2] (setting [11]), 94.9%; in assay [2] (setting [12]), 98.7%. In addition, the activity at 30 µM in assay [2] (setting [7]) is 92.5%; in assay [2] (setting [8]) it was 105%; in assay [2] (setting [13]) it was 99%; in assay [2] (setting [14]) it was 95.2%. Moreover, the “Lag Phase” value in assay [2] (setting [15]) is given as 95,5%; in assay [2] (setting [16]) it was 97,5%; in assay [2] (setting [17]), 97,0%; in assay [2] (setting [18]), 99,3%; in assay [2] (setting [19]) it was 98,9%; in assay [2] (setting [20]), 98,9%.
Turning to `O=C(/C=C/c1ccc(O)c(O)c1)c1ccc(O)c(O)c1O` [Compound 12, 2′,3′,4′,3,4-Pentahydroxy-chalcone], the Influence on plants entry in assay [1] is given as “Yes”. The dry weight entry in assay [1] is “significantly reduced”. Also, the activity at 0.1 µM amounted to 97.8% in assay [2] (KT2440, complex medium, 0.1 µM, relative to control, read-out: Final Backscatter); 104% in assay [2] (KT2440, complex medium, 0.1 µM, relative to control, read-out: Growth rate); 92.5% in assay [2] (KT2440, minimal medium, 0.1 µM, relative to control, read-out: Final Backscatter); 105% in assay [2] (KT2440, minimal medium, 0.1 µM, relative to control, read-out: Growth rate). The activity at 1 µM in assay [2] (KT2440, complex medium, 1 µM, relative to control, read-out: Final Backscatter) was determined as 98.2%; in assay [2] (KT2440, complex medium, 1 µM, relative to control, read-out: Growth rate) it was 103%; in assay [2] (KT2440, minimal medium, 1 µM, relative to control, read-out: Final Backscatter) it was 93.6%; in assay [2] (KT2440, minimal medium, 1 µM, relative to control, read-out: Growth rate), 104%. The activity at 10 µM in assay [2] (KT2440, complex medium, 10 µM, relative to control, read-out: Final Backscatter) came out at 98.6%; in assay [2] (KT2440, complex medium, 10 µM, relative to control, read-out: Growth rate), 99.7%; in assay [2] (KT2440, minimal medium, 10 µM, relative to control, read-out: Final Backscatter), 99.3%; in assay [2] (KT2440, minimal medium, 10 µM, relative to control, read-out: Growth rate) it was 100%. The “Lag Phase” value in assay [2] (complex medium, 0.1 µM, relative to control) is 103,3%; in assay [2] (complex medium, 1 µM, relative to control), 103,9%; in assay [2] (complex medium, 10 µM, relative to control) it was 105,9%; in assay [2] (minimal medium, 0.1 µM, relative to control), 108,8%; in assay [2] (minimal medium, 1 µM, relative to control), 106,1%; in assay [2] (minimal medium, 10 µM, relative to control) it was 100,0%.
